# Read-outs that look alike come from different tables or passages of the source.
# Experiments:
# S. typhimurium TA100 = test: Ames test, anti-mutagenicity
# Procedure: Furthermore, the anti-mutagenicity of the samples was performed by a similar procedure, as mentioned above. […] The percentage inhibition (decrease revertant colony number) was calculated as in the following equation:Anti-mutagenicity (%) = [1 − (b/a)] × 100 • a = revertant colony number induced via standard mutagen (positive control). • b = revertant colony number induced by standard mutagen in the presence of each sample treatment.
# The percent of inhibition between 0–20%, 21–40%, 41–60%, and higher than 60% indicate negligible, weak, moderate, and strong anti-mutagenicity, respectively.
# [1] = system: D. melanogaster trans-heterozygous mwh+/+flr3 larvae of the ST cross; test: SMART wing spot test, anti-mutagenicity, ST cross
# Procedure: The somatic mutation and recombination test, or the wing spot test, using D. melanogaster was employed as an in vivo system to assess the mutagenicity and anti-mutagenicity of chrysin-ES. Two different crosses were conducted: (i) a standard cross (ST) and (ii) a high bioactivation cross (HB). The standard cross larvae were obtained from virgin female of flr3/TM3, Ser crossed with males of mwh/mwh, while the HB cross larvae expressing cytochrome P450 enzymes involved in xenobiotic biotransformation were obtained from virgin females of ORR/ORR; flr^3/In (3LR) TM3, ri p^psep l (3)89Aa bx^34e e Bd^s crossed with males of mwh/mwh. The flies were cultured at a constant temperature of 25 ± 1 °C and 60–70% RH at photoperiod 12:12 (light/dark). To evaluate the mutagenicity of chrysin and chrysin-ES, a hundred larva F1 progenies derived from the above crossing were fed with instant Drosophila medium (Formula 4-24®), Carolina, Burlington, NC, USA) containing chrysin or chrysin-ES (20–120 µg/mL). DI was used as a negative control, while 20 mM urethane (URE) was used as a positive control. The larvae were reared on each medium until pupation at 25 °C. After that, forty wings of surviving flies in each group were collected for mutant analysis. The mutant spots on the wings, including small single spots, large single spots, and twin spots, were counted. The statistical significance was calculated as previously described by Frei and Würgler.
# Furthermore, the anti-mutagenicity of the samples was performed by a similar procedure as mentioned above.
# [2] = AF-2 0.1 µg/plate, −S9, 5.7 µM/plate
# [3] = AF-2 0.1 µg/plate, −S9, 11.4 µM/plate
# [4] = AF-2 0.1 µg/plate, −S9, 22.8 µM/plate
# [5] = IQ 0.05 µg/plate, +S9, 0.35 µM/plate
# [6] = IQ 0.05 µg/plate, +S9, 0.70 µM/plate
# [7] = IQ 0.05 µg/plate, +S9, 1.40 µM/plate
# [8] = IQ 0.05 µg/plate, +S9, 2.85 µM/plate
# [9] = IQ 0.05 µg/plate, +S9, 5.70 µM/plate
structure (smiles),measurement,setting,value
"O=c1cc(-c2ccccc2)oc2cc(O)cc(O)c12 [Chrysin, 5,7-dihydroxyflavone]",Inhibitory Classification,S. typhimurium TA100; [2],Mild
same,Number of Revertant Colonies,S. typhimurium TA100; [2],252 ± 14
same,Inhibitory Classification,S. typhimurium TA100; [3],Mild
same,Number of Revertant Colonies,S. typhimurium TA100; [3],250 ± 6
same,Inhibitory Classification,S. typhimurium TA100; [4],Mild
same,Number of Revertant Colonies,S. typhimurium TA100; [4],235 ± 20
same,Inhibitory Classification,S. typhimurium TA100; [5],Moderate
same,Number of Revertant Colonies,S. typhimurium TA100; [5],328 ± 32
same,Inhibitory Classification,S. typhimurium TA100; [6],Strong
same,Number of Revertant Colonies,S. typhimurium TA100; [6],243 ± 16
same,Inhibitory Classification,S. typhimurium TA100; [7],Strong
same,Number of Revertant Colonies,S. typhimurium TA100; [7],161 ± 10
same,Inhibitory Classification,S. typhimurium TA100; [8],Strong
same,Number of Revertant Colonies,S. typhimurium TA100; [8],106 ± 15
same,Inhibitory Classification,S. typhimurium TA100; [9],Strong
same,Number of Revertant Colonies,S. typhimurium TA100; [9],47 ± 10
same,inhibition at […],"S. typhimurium TA100; Salmonella enterica, TYPHIMURIUM, read-out: % mutagenic inhibition, AF-2 0.1 µg/plate, −S9, 5.7 µM/plate",32%
same,inhibition at 11.4 µM,"S. typhimurium TA100; Salmonella enterica, TYPHIMURIUM, read-out: % mutagenic inhibition, AF-2 0.1 µg/plate, −S9, 11.4 µM/plate",32%
same,inhibition at 22.8 µM,"S. typhimurium TA100; Salmonella enterica, TYPHIMURIUM, read-out: % mutagenic inhibition, AF-2 0.1 µg/plate, −S9, 22.8 µM/plate",37%
same,inhibition at 0.35 µM,"S. typhimurium TA100; Salmonella enterica, TYPHIMURIUM, read-out: % mutagenic inhibition, IQ 0.05 µg/plate, +S9, 0.35 µM/plate",56%
same,inhibition at 0.7 µM,"S. typhimurium TA100; Salmonella enterica, TYPHIMURIUM, read-out: % mutagenic inhibition, IQ 0.05 µg/plate, +S9, 0.70 µM/plate",67%
same,inhibition at 1.4 µM,"S. typhimurium TA100; Salmonella enterica, TYPHIMURIUM, read-out: % mutagenic inhibition, IQ 0.05 µg/plate, +S9, 1.40 µM/plate",78%
same,inhibition at 2.85 µM,"S. typhimurium TA100; Salmonella enterica, TYPHIMURIUM, read-out: % mutagenic inhibition, IQ 0.05 µg/plate, +S9, 2.85 µM/plate",86%
same,inhibition at […],"S. typhimurium TA100; Salmonella enterica, TYPHIMURIUM, read-out: % mutagenic inhibition, IQ 0.05 µg/plate, +S9, 5.70 µM/plate",94%
same,inhibition of MMC mutagenicity,[1]; 40–80 µg/mL,approximately 30%
same,Inhibition (%),[1]; EMS 5 mM + 20 μg/mL,19%
same,Inhibitory Classification,[1]; EMS 5 mM + 20 μg/mL,Negligible
same,"Mutant spots per individual (number of spots), Large Single",[1]; EMS 5 mM + 20 μg/mL,1.28 (51)
same,"Mutant spots per individual (number of spots), Small Single",[1]; EMS 5 mM + 20 μg/mL,4.88 (195)
same,"Mutant spots per individual (number of spots), Total",[1]; EMS 5 mM + 20 μg/mL,6.35 (254)
same,"Mutant spots per individual (number of spots), Twin",[1]; EMS 5 mM + 20 μg/mL,0.20 (8)
same,Inhibition (%),[1]; EMS 5 mM + 40 μg/mL,46%
same,Inhibitory Classification,[1]; EMS 5 mM + 40 μg/mL,Moderate
same,"Mutant spots per individual (number of spots), Large Single",[1]; EMS 5 mM + 40 μg/mL,0.93 (37)
same,"Mutant spots per individual (number of spots), Total",[1]; EMS 5 mM + 40 μg/mL,4.20 (168)
same,"Mutant spots per individual (number of spots), Twin",[1]; EMS 5 mM + 40 μg/mL,0.35 (14)
same,Inhibition (%),[1]; EMS 5 mM + 80 μg/mL,49%
same,Inhibitory Classification,[1]; EMS 5 mM + 80 μg/mL,Moderate
same,"Mutant spots per individual (number of spots), Large Single",[1]; EMS 5 mM + 80 μg/mL,0.35 (14)
same,"Mutant spots per individual (number of spots), Small Single",[1]; EMS 5 mM + 80 μg/mL,3.50 (140)
same,"Mutant spots per individual (number of spots), Total",[1]; EMS 5 mM + 80 μg/mL,3.95 (158)
same,"Mutant spots per individual (number of spots), Twin",[1]; EMS 5 mM + 80 μg/mL,0.10 (4)
same,Inhibition (%),[1]; EMS 5 mM + 120 μg/mL,42%
same,Inhibitory Classification,[1]; EMS 5 mM + 120 μg/mL,Moderate
same,"Mutant spots per individual (number of spots), Large Single",[1]; EMS 5 mM + 120 μg/mL,0.88 (35)
same,"Mutant spots per individual (number of spots), Small Single",[1]; EMS 5 mM + 120 μg/mL,3.40 (136)
same,"Mutant spots per individual (number of spots), Total",[1]; EMS 5 mM + 120 μg/mL,4.55 (182)
same,"Mutant spots per individual (number of spots), Twin",[1]; EMS 5 mM + 120 μg/mL,0.28 (11)
same,Inhibition (%),[1]; MMC 0.05 mM + 20 μg/mL,−1%
same,"Mutant spots per individual (number of spots), Large Single",[1]; MMC 0.05 mM + 20 μg/mL,1.45 (58)
same,"Mutant spots per individual (number of spots), Small Single",[1]; MMC 0.05 mM + 20 μg/mL,8.05 (322)
same,"Mutant spots per individual (number of spots), Total",[1]; MMC 0.05 mM + 20 μg/mL,9.85 (394)
same,"Mutant spots per individual (number of spots), Twin",[1]; MMC 0.05 mM + 20 μg/mL,0.35 (14)
same,Inhibition (%),[1]; MMC 0.05 mM + 40 μg/mL,30%
same,Inhibitory Classification,[1]; MMC 0.05 mM + 40 μg/mL,Weak
same,"Mutant spots per individual (number of spots), Large Single",[1]; MMC 0.05 mM + 40 μg/mL,1.35 (54)
same,"Mutant spots per individual (number of spots), Small Single",[1]; MMC 0.05 mM + 40 μg/mL,4.98 (199)
same,"Mutant spots per individual (number of spots), Total",[1]; MMC 0.05 mM + 40 μg/mL,6.85 (274)
same,"Mutant spots per individual (number of spots), Twin",[1]; MMC 0.05 mM + 40 μg/mL,0.53 (21)
same,Inhibition (%),[1]; MMC 0.05 mM + 80 μg/mL,30%

# From publication PMC11206519, “Multi-Endpoint Toxicological Assessment of Chrysin Loaded Oil-in-Water Emulsion System in Different Biological Models” (Nanomaterials, 2024)
